1 compound from patent publication US7189351B2, “D-tagatose as an anti-biofilm agent” (priority 2001, dated 2007) can be followed below.

The test system of test [1] is Actinomyces naeslundii PK947/Streptococcus oralis SO34. The test is described as follows: reversal of coaggregation, visual score. In kind it is cell-based. The settings on record: pair PK947/SO34; sugar 200 mM; water score 3; scale 0 no visible to 4 maximum coaggregation. On the procedure: (§1) Fifteen oral isolates, including both early colonizers (Streptococcus and Actinomyces) and late colonizers (Fusobacterium, Porphyromonas, Prevotella, Veillonella, Capnocytophaga, and Actinobacillus), were tested for their ability to coaggregate with each other, followed by testing for the reversal of coaggregation by the addition of D-tagatose. Bacterial strains used were of human gingival crevice origin. The coaggregation was examined visually by a scoring system ranging from 0 for no visible coaggregation to 4 for maximum coaggregation [Cisar J. O., Kolenbrander P. E., and McIntire F. C., “Specificity of coaggregation reactions between human oral streptococci and strains of Actinomyces viscosus or Actinomyces naeslundii”, Infect. Immun., 24:742–752. 1979]. D-Tagatose, at a concentration of less than 750 mM, completely reversed the coaggregation of 17 (60%) of 28 strong coaggregating pairs (with a coaggregation score of 2 or higher) tested. […] These D-tagatose sensitive coaggregations were D-galactose reversible as well.
(§2) Pairs of various species of oral bacteria were tested for coaggregation, and for reversal of coaggregation when D-tagatose or D-galactose was administered.

Test [2] relates to Actinomyces naeslundii PK947/Streptococcus oralis C104. The experiment in a line: reversal of coaggregation, visual score. In kind it is cell-based. As to conditions: pair PK947/C104; sugar 200 mM; water score 2; scale 0 no visible to 4 maximum coaggregation. On the procedure: as §1, §2
The test system of test [3] is Actinomyces naeslundii PK29/Streptococcus morbillorum PK509. The test is described as follows: reversal of coaggregation, visual score. As to conditions: pair PK29/PK509; sugar 200 mM; water score 2; scale 0 no visible to 4 maximum coaggregation. In kind it is cell-based. On the procedure:
as §1, §2

Test [4] has as its system Actinomyces naeslundii PK29/Streptococcus mitis J22. The experiment in a line: reversal of coaggregation, visual score. The settings on record: pair PK29/J22; sugar 750 mM; water score 4; scale 0 no visible to 4 maximum coaggregation. In kind it is cell-based. On the procedure:
as §1, §2

In test [5] the test system is Actinomyces naeslundii PK947/Streptococcus mitis J22. The experiment in a line: reversal of coaggregation, visual score. In kind it is cell-based. As to conditions: pair PK947/J22; sugar 200 mM; water score 2; scale 0 no visible to 4 maximum coaggregation. On the procedure: as §1, §2
Test [6] has as its system Streptococcus morbillorum PK509/Veillonella atypica PK1910. The test is described as follows: reversal of coaggregation, visual score. In kind it is cell-based. As to conditions: pair PK509/PK1910; sugar 400 mM; water score 2; scale 0 no visible to 4 maximum coaggregation. On the procedure:
as §1, §2

For test [7], the system named is Streptococcus morbillorum PK509/Prevotella loescheii PK1295. The experiment in a line: reversal of coaggregation, visual score. In kind it is cell-based. As to conditions: pair PK509/PK1295; sugar 600 mM; water score 2; scale 0 no visible to 4 maximum coaggregation. On the procedure: as §1, §2
In test [8] the test system is Fusobacterium nucleatum PK1594/Actinobacillus actinomycetemcomitans JP2. The test is described as follows: reversal of coaggregation, visual score. In kind it is cell-based. The settings on record: pair PK1594/JP2; sugar 600 mM; water score 3; scale 0 no visible to 4 maximum coaggregation. On the procedure: as §1, §2
Test [9] deals with Streptococcus morbillorum PK509/Streptococcus oralis C104. The test is described as follows: reversal of coaggregation, visual score. In kind it is cell-based. The settings on record: pair PK509/C104; sugar 750 mM; water score 3; scale 0 no visible to 4 maximum coaggregation. On the procedure:
as §1, §2

Test [10] concerns Fusobacterium nucleatum PK1594/Porphyromonas gingivalis PK1924. The test is described as follows: reversal of coaggregation, visual score. In kind it is cell-based. As to conditions: pair PK1594/PK1924; sugar 400 mM; water score 4; scale 0 no visible to 4 maximum coaggregation. On the procedure: as §1, §2
For test [11], the system named is Streptococcus morbillorum PK509/Streptococcus oralis SO34. The test is described as follows: reversal of coaggregation, visual score. In kind it is cell-based. The settings on record: pair PK509/SO34; sugar 400 mM; water score 2; scale 0 no visible to 4 maximum coaggregation. On the procedure: as §1, §2
Test [12] relates to Actinomyces naeslundii PK29/Streptococcus oralis SO34. The test is described as follows: reversal of coaggregation, visual score. The settings on record: pair PK29/SO34; sugar 750 mM; water score 4; scale 0 no visible to 4 maximum coaggregation. In kind it is cell-based. On the procedure: as §1, §2
Test [13] has as its system Actinomyces naeslundii PK29/Streptococcus oralis C104. The experiment in a line: reversal of coaggregation, visual score. In kind it is cell-based. The settings on record: pair PK29/C104; sugar 750 mM; water score 4; scale 0 no visible to 4 maximum coaggregation. On the procedure:
as §1, §2

Test [14] deals with Veillonella atypica PK1910/Streptococcus oralis C104. The test is described as follows: reversal of coaggregation, visual score. As to conditions: pair PK1910/C104; sugar 200 mM; water score 3; scale 0 no visible to 4 maximum coaggregation. In kind it is cell-based. On the procedure: as §1, §2
In test [15] the test system is Fusobacterium nucleatum PK1594/Veillonella atypica PK1910. The test is described as follows: reversal of coaggregation, visual score. In kind it is cell-based. As to conditions: pair PK1594/PK1910; sugar 200 mM; water score 3; scale 0 no visible to 4 maximum coaggregation. On the procedure:
as §1, §2

Test [16] deals with Veillonella atypica PK1910/Streptococcus oralis SO34. The experiment in a line: reversal of coaggregation, visual score. In kind it is cell-based. As to conditions: pair PK1910/SO34; sugar 200 mM; water score 3; scale 0 no visible to 4 maximum coaggregation. On the procedure:
as §1, §2

In test [17] the test system is Prevotella loescheii PK1295/Streptococcus mitis J22. The test is described as follows: reversal of coaggregation, visual score. In kind it is cell-based. The settings on record: pair PK1295/J22; sugar 750 mM; water score 4; scale 0 no visible to 4 maximum coaggregation. On the procedure:
as §1, §2

For test [18], the system named is F. nucleatum PK1594 and P. gingivalis PK1924. The test is described as follows: phase-contrast photomicrographs of coaggregation. In kind it is cell-based, Fusobacterium nucleatum; Porphyromonas gingivalis. The settings on record: 400 mM final concentration.
The test system of test [19] is Prevotella loescheii PK1295/Streptococcus oralis C104. The test is described as follows: reversal of coaggregation, visual score. In kind it is cell-based. As to conditions: pair PK1295/C104; sugar 750 mM; water score 4; scale 0 no visible to 4 maximum coaggregation. On the procedure:
as §1, §2

Test [20] relates to Prevotella loescheii PK1295/Streptococcus oralis SO34. The test is described as follows: reversal of coaggregation, visual score. In kind it is cell-based. The settings on record: pair PK1295/SO34; sugar 750 mM; water score 4; scale 0 no visible to 4 maximum coaggregation. On the procedure: as §1, §2
For test [21], the system named is coaggregating pairs of oral isolates (early and late colonizers). The test is described as follows: reversal of coaggregation among fifteen oral isolates (overall). In kind it is cell-based, bacterial strains of human gingival crevice origin. On the procedure:
as §1, §2

The structures appear in SMILES notation.

Consider `OC[C@@H](O)[C@@H](O)[C@H](O)[C@@H](O)CO` [D-Sorbitol], for which the coaggregation score in [1] came out at 2; in test [2] it was 1; in test [3] it was 2; in test [4], 4; in [5], 2; in test [6] it was 0. In addition, the coaggregation score is 0 in [7]; 2 in test [8]; 1 in test [9]; 3 in [10]; 1 in test [11]; 4 in test [12]. Also, the coaggregation score was 4 in test [13]; 1 in test [14]; 1 in test [15]; 1 in test [16]; 2 in [17]; 2 in [19]. Besides, the coaggregation score in [20] is reported as 1. For the same compound, in test [18], the “dissociation of coaggregate clumps” value was “did not dissociate the clumps”. In addition, the “plaque reversibility, comparison of Table 2” value in test [21] (D-tagatose and D-sorbitol at somewhat higher concentrations than D-galactose) is recorded as “markedly inferior”. Moreover, in test [21] (in contrast to D-tagatose), the “effect on the coaggregating pairs tested” value is “little or no effect”.
